Data taken from the NIST ThermoML archive (doi:10.1021/je049721u).

Experiment: mn = molality of the nth substance listed, in mol/kg
Conditions: 101.3 kPa, Liquid; for speed of sound: Pulse-echo method

[O-][Cl+3]([O-])([O-])[O-].[O-][Cl+3]([O-])([O-])[O-].[Zn+2] [zinc perchlorate] + CN(C)C=O
Conditions | mass density, 283.15 K [kg/m3] | mass density, 293.15 K [kg/m3] | mass density, 298.15 K [kg/m3] | mass density, 303.15 K [kg/m3] | mass density, 313.15 K [kg/m3] | mass density, 323.15 K [kg/m3] | mass density, 333.15 K [kg/m3] | speed of sound, 298.15 K [m/s]
m1 = 0.03554 | 965.795 | 956.309 | 951.555 | 946.8 | 937.255 | 927.66 | 918.015 | 1459.9
m1 = 0.04966 | 968.825 | 959.347 | 954.6 | 949.85 | 940.315 | 930.737 | 921.108 | –
m1 = 0.05952 | 970.955 | 961.484 | 956.74 | 951.99 | 942.46 | 932.889 | 923.268 | 1461.7
m1 = 0.06946 | 973.095 | 963.626 | 958.885 | 954.139 | 944.619 | 935.058 | 925.449 | 1462.5
m1 = 0.1039 | 980.554 | 971.105 | 966.376 | 961.642 | 952.143 | 942.607 | 933.036 | 1465
m1 = 0.1369 | 987.781 | 978.348 | 973.626 | 968.9 | 959.426 | 949.918 | 940.371 | 1467.5
m1 = 0.17 | 995.118 | 985.7 | 980.987 | 976.267 | 966.813 | 957.333 | 947.816 | 1469.6
m1 = 0.2038 | 1002.65 | 993.242 | 988.537 | 983.828 | 974.394 | 964.934 | 955.438 | 1472.1
m1 = 0.2374 | 1010.26 | 1000.87 | 996.17 | 991.474 | 982.063 | 972.635 | 963.178 | 1474.7
m1 = 0.2701 | 1017.77 | 1008.39 | 1003.7 | 999.008 | 989.616 | 980.208 | 970.777 | 1477.2
m1 = 0.3002 | 1024.72 | 1015.35 | 1010.66 | 1005.98 | 996.605 | 987.212 | 977.794 | 1479.7
m1 = 0.3314 | 1032.04 | 1022.68 | 1018.01 | 1013.33 | 1003.97 | 994.605 | 985.215 | 1482.1

[Cu+2].[O-][Cl+3]([O-])([O-])[O-].[O-][Cl+3]([O-])([O-])[O-] [copper perchlorate] + CN(C)C=O
Conditions | mass density, 283.15 K [kg/m3] | mass density, 293.15 K [kg/m3] | mass density, 298.15 K [kg/m3] | mass density, 303.15 K [kg/m3] | mass density, 313.15 K [kg/m3] | mass density, 323.15 K [kg/m3] | mass density, 333.15 K [kg/m3] | speed of sound, 298.15 K [m/s]
m1 = 0.0362 | 965.762 | 956.275 | 951.52 | 946.762 | 937.212 | 927.62 | 917.988 | 1460
m1 = 0.04897 | 968.496 | 959.009 | 954.258 | 949.505 | 939.972 | 930.338 | 920.756 | –
m1 = 0.0604 | 970.938 | 961.462 | 956.715 | 951.971 | 942.44 | 932.866 | 923.242 | 1461.7
m1 = 0.07815 | 974.714 | 965.248 | 960.507 | 955.758 | 946.236 | 936.666 | 927.06 | 1463.2
m1 = 0.106 | 980.752 | 971.295 | 966.549 | 961.812 | 952.315 | 942.78 | 933.198 | 1465.3
m1 = 0.139 | 987.892 | 978.445 | 973.718 | 968.984 | 959.5 | 949.979 | 940.416 | 1467.8
m1 = 0.1737 | 995.495 | 986.058 | 981.338 | 976.613 | 967.148 | 957.653 | 948.12 | 1470.3
m1 = 0.2084 | 1003.16 | 993.739 | 989.024 | 984.309 | 974.859 | 965.385 | 955.869 | 1473.2
m1 = 0.2431 | 1010.94 | 1001.53 | 996.825 | 992.116 | 982.686 | 973.233 | 963.75 | 1475.7
m1 = 0.2746 | 1018.01 | 1008.7 | 1003.95 | 999.2 | 989.83 | 980.454 | 970.858 | 1478.3
m1 = 0.3065 | 1025.38 | 1015.99 | 1011.3 | 1006.6 | 997.202 | 987.786 | 978.345 | 1480.8
m1 = 0.3377 | 1032.62 | 1023.24 | 1018.54 | 1013.85 | 1004.46 | 995.056 | 985.638 | 1483.8

[Mn+2].[O-][Cl+3]([O-])([O-])[O-].[O-][Cl+3]([O-])([O-])[O-] [manganese (II) perchlorate] + CN(C)C=O
Conditions | mass density, 283.15 K [kg/m3] | mass density, 293.15 K [kg/m3] | mass density, 298.15 K [kg/m3] | mass density, 303.15 K [kg/m3] | mass density, 313.15 K [kg/m3] | mass density, 323.15 K [kg/m3] | mass density, 333.15 K [kg/m3] | speed of sound, 298.15 K [m/s]
m1 = 0.04109 | 966.326 | 956.852 | 952.107 | 947.355 | 937.821 | 928.242 | 918.616 | 1460.8
m1 = 0.05823 | 969.773 | 960.312 | 955.574 | 950.83 | 941.313 | 931.759 | 922.147 | –
m1 = 0.08396 | 974.96 | 965.52 | 960.793 | 956.059 | 946.568 | 937.04 | 927.465 | 1464.6
m1 = 0.1024 | 978.695 | 969.265 | 964.546 | 959.822 | 950.346 | 940.834 | 931.273 | –
m1 = 0.1233 | 982.926 | 973.513 | 968.799 | 964.082 | 954.629 | 945.142 | 935.612 | 1468.2
m1 = 0.1616 | 990.785 | 981.396 | 976.698 | 971.997 | 962.575 | 953.124 | 943.633 | 1471.4
m1 = 0.2007 | 998.895 | 989.531 | 984.846 | 980.162 | 970.768 | 961.357 | 951.918 | 1475
m1 = 0.2395 | 1007.03 | 997.69 | 993.019 | 988.351 | 978.996 | 969.623 | 960.225 | 1478.3
m1 = 0.2793 | 1015.47 | 1006.16 | 1001.5 | 996.842 | 987.519 | 978.179 | 968.812 | 1481.9
m1 = 0.3166 | 1023.51 | 1014.22 | 1009.58 | 1004.94 | 995.645 | 986.342 | 977.019 | 1485.6
m1 = 0.3529 | 1031.38 | 1022.11 | 1017.48 | 1012.85 | 1003.59 | 994.313 | 985.025 | 1488.9
m1 = 0.3885 | 1039.21 | 1029.96 | 1025.35 | 1020.73 | 1011.5 | 1002.27 | 993.029 | 1492.5

[Co+2].[O-][Cl+3]([O-])([O-])[O-].[O-][Cl+3]([O-])([O-])[O-] [cobalt(II) perchlorate] + CN(C)C=O
Conditions | mass density, 283.15 K [kg/m3] | mass density, 293.15 K [kg/m3] | mass density, 298.15 K [kg/m3] | mass density, 303.15 K [kg/m3] | mass density, 313.15 K [kg/m3] | mass density, 323.15 K [kg/m3] | mass density, 333.15 K [kg/m3] | speed of sound, 298.15 K [m/s]
m1 = 0.02921 | 964.275 | 954.785 | 950.026 | 945.273 | 935.722 | 926.127 | 916.489 | 1459.6
m1 = 0.03591 | 965.673 | 956.19 | 951.432 | 946.682 | 937.135 | 927.546 | 917.907 | –
m1 = 0.05081 | 968.79 | 959.315 | 954.565 | 949.82 | 940.29 | 930.711 | 921.09 | 1461.4
m1 = 0.05902 | 970.508 | 961.035 | 956.29 | 951.55 | 942.021 | 932.457 | 922.843 | 1462.1
m1 = 0.08863 | 976.733 | 967.283 | 962.549 | 957.809 | 948.308 | 938.77 | 929.181 | 1464.2
m1 = 0.1167 | 982.692 | 973.255 | 968.53 | 963.801 | 954.319 | 944.808 | 935.256 | 1466.5
m1 = 0.1455 | 988.838 | 979.414 | 974.697 | 969.98 | 960.52 | 951.034 | 941.509 | 1468.5
m1 = 0.1735 | 994.845 | 985.454 | 980.747 | 976.035 | 966.596 | 957.13 | 947.626 | 1471
m1 = 0.2007 | 1000.8 | 991.403 | 986.7 | 981.997 | 972.578 | 963.135 | 953.661 | 1472.8
m1 = 0.2305 | 1007.33 | 997.94 | 993.248 | 988.552 | 979.153 | 969.73 | 960.286 | 1475.4
m1 = 0.2574 | 1013.28 | 1003.91 | 999.223 | 994.536 | 985.152 | 975.753 | 966.326 | 1477.5
m1 = 0.284 | 1019.22 | 1009.86 | 1005.18 | 1000.5 | 991.143 | 981.766 | 972.371 | 1479.7
